From patent US6162826A, “Genipin derivative having anti hepatitis B virus activity” (priority 1996, dated 2000)
Where two headings read alike, the source gives them in different places.

Tests used:
HBV replication [1] = experiment: Inhibitory effect on HBV replication in 2.2.15 cell culture; type: cell-based, hepatitis B virus; details: for EC50: Hepatitis B virus, 216 h, read-out: ED50 (inhibitory effect on HBV replication); for SI (Selectivity Index, IC50/ED50): cytotoxicity IC50 / HBV ED50, 2.2.15 cell culture
Excerpt: Inhibitory effect on HBV replication was examined by the use of 2.2.15. cell. 2.2.15. cell line (see, Sells et al., Journal of Virology, 62, 2836-2844, 1988) is a hepatoma cell infected by hepatitis B virus and is a representative standard cell which accurately standardizes all the essential viral characteristics induced by a chronic HBV infection. That is, 2.2.15. cell has some merits such that DNA pattern is stable, replicated virus exists in high level, virus-specific RNA replicate and protein are present in an appropriate size and pattern, the penetrated HBV virion is excreted in high titer, etc. Therefore, it has been recognized as a very suitable cell line which can be used when the anti viral activity of any compound on HBV is evaluated (see, Korba and Milman, Antiviral Research, 15, p217-228, 1991).
First, the present inventors cultured 2.2.15. cell and treated the cell with the novel compound according to the present invention. Then, extraction of DNA and RNA, gel electrophoresis, and hybridization analysis of HBV DNA were carried out to identify the inhibitory activity of the compound of the present invention on HBV replication. Herein, untreated cell was used as a control and ddC (dideoxy cytidine) widely known as a therapeutic agent for hepatitis was used as a comparative compound. As a result, it could be seen that the genipin derivative according to the present invention has an excellent inhibitory effect on replication like the known ddC.
Test for identifying the anti HBV effect of the compound of the present invention was carried out according to a known assay method (see, Korba and Milman, Antiviral Res., 15, 217, 1991). The assay procedure is briefly described in the following.
2.2.15. cell was cultured and preserved in RPM 11640 culture medium containing 5% fetal bovine serum(FBS), 2 mM glutamine and 50 μg/ml gentamicin sulfate. Resistance to G418 of the cell culture and degree of Mycoplasma contamination were examined according to conventional methods.
Cells (1×10^4 /cm^2) were inoculated into a multi-well tissue culture plate, confluently cultured for 7 days, and then kept for 2 or 3 days in confluent condition to stabilize the HBV DNA level. Then, culture medium was replaced 24 hours before cells were exposed to test compound. During the treatment of 9 days, culture medium was replaced and then test compound was added to the fresh culture medium at intervals of 24 hours. Culture medium was collected immediately before the first introduction of test compound, and after 3, 6, 9 days, respectively, and stored at -70° C. before HBV DNA analysis. Then, cytolysis was carried out to analyze the intracellular HBV DNA.
To analyze the extracellular HBV DNA, 0.2 ml of culture medium was incubated in 1M NaOH/10×SSC (1×SSC=0.15M NaCl/0.015M sodium citrate, pH 7.2) for 20 minutes at 25° C. and then immediately applied to a nitrocellulose membrane presoaked in 20×SSC using a slot blot apparatus. The sample was washed twice with 0.5 ml of 1M Tris/2M NaCl (pH 7.2) and once with 0.5 ml of 20×SSC to neutralize, and then it was washed again with 2×SSC and heated at 80° C. for one hour under vacuum. Generally, the cells which have been cultured and preserved in a dish having a diameter of 10 cm are dissolved in 6 ml of lysis buffer, and the […] is prepared according to the method of Korba et al., 1991.
10 μg/lane of cellular DNA sample was digested with restriction enzyme Hind III. Then, the digested sample was applied to 1% agarose gel electrophoresis and transferred to a nitrocellulose membrane.
3.2 kb HBV DNA fragment obtained by EcoR 1-digestion and purification was labeled with [^32 P]dCTP using nick translation method. This labeled fragment was used as a hybridization probe. Conditions for hybridization and post-washing were controlled by referring to the method of Korba et al., 1991 and HBV nucleic acid content among test sample was determined by Ambis beta scanner. […]

[2] = Cytotoxicity test (neutral red dye uptake); type: cell-based; details: human, 2.2.15 cells, A510, 2.2.15 cell, cells treated as in Biological Example 1, read-out: IC50 (cytotoxicity)
Procedure: Further, the present inventors have performed cytotoxicity test using the neutral red dye uptake method to determine that the anti viral effect of the compound of formula (I) […] its general influence on cell growth. As a result, it was identified that the toxicity of the compound of formula (I) is much less than that of ddC.
Cytotoxicity test was carried out in order to determine whether the anti viral effect of the compound according to the present invention is due to the general influence on cell growth or not. In the present experiment, neutral red dye uptake method was used. This is a standard method widely utilized for examining cell survival, by which the variety of relations between viruses such as HSV or HIV and host organism can be understood.
Cytotoxicity test was performed on a 96-well tissue culture plate. Cells were cultured and treated with test compounds in the same manner as Biological Example 1, and the experiments at 4-kind concentrations were repeated threetimes, respectively. Since the relative toxicity can be determined from the uptake level of neutral red dye, quantitative analysis was carried out using the absorbance of internalized dye at 510 nm (A510).
Inhibitory effect of the compound of formula (I) on HBV replication in 2.2.15 cell culture, cytotoxicity, and SI (Selectivity Index, IC50 /ED50)

HBV replication [3] = details: therapeutic agent for hepatitis B; cited from earlier work
[4] = cited from earlier work
[5] = 2.2.15 cell culture, treatment of 9 days

Compound: CO[C@@H]1OC=C(C=O)[C@H]2CC=C(C=O)[C@@H]12 [Compound 1, (1R,4aS,7aS)-4,7-diformyl-1-metboxy-1,4a,5,7a-tetrahydrocyclopenta-[c]pyran]
- EC50 (HBV replication [1]; [5]): > 500 µM
- CC50 [2]: 120 µM

Compound: COc1ccc(COCC2=CO[C@@H](OC)[C@@H]3C(C=NO)=CC[C@H]23)cc1 [Compound 2, (1R,4aS,7aS)-7-hydroxyiminomethyl-1-methoxy-4-(p-methoxybenzyloxymethyl)-1,4a,5,7a-tetrahydrocyclopenta[c]pyran]
- EC50 (HBV replication [1]; [5]): 30 µM
- SI (Selectivity Index, IC50/ED50) (HBV replication [1]): 3.0
- CC50 [2]: 90 µM

Compound: COC(=O)C1=CO[C@@H](OC(=O)c2ccncc2)[C@@H]2C(COC(=O)c3ccncc3)=CC[C@H]12 [Compound 11, Methyl (1S,4aS,7aS)-1-isonicotinoyloxy-7-isonicotinoyloxymethyl-1,4a,5,7a-tetrahydrocyclopenta[c]pyran4-carboxylate]
- EC50 (HBV replication [1]; [5]): 30 µM
- SI (Selectivity Index, IC50/ED50) (HBV replication [1]): > 6.7
- CC50 [2]: > 200 µM

Compound: COC(=O)C1=CO[C@@H](OCc2ccccc2)[C@@H]2C(C=O)=CC[C@H]12 [Compound 13, Methyl (1R,4aS,7aS)-1-benzyloxy-7-formyl-1,4a,5,7a-tetrahydrocyclopenta[c]pyran-4-carboxylate]
- EC50 (HBV replication [1]; [5]): 20 µM
- SI (Selectivity Index, IC50/ED50) (HBV replication [1]): 2.5
- CC50 [2]: 50 µM

Compound: COC(=O)C1=CO[C@@H](OCc2ccccc2)[C@@H]2C(C=NO)=CC[C@H]12 [Compound 14, Methyl (1R,4aS,7aS)-1-benzyloxy-7-hydroxyiminomethyl-1,4a,5,7a-tetrahydrocyclopenta[c]pyran-4-carboxylate]
- EC50 (HBV replication [1]; [5]): 15 µM
- SI (Selectivity Index, IC50/ED50) (HBV replication [1]): 8.7
- CC50 [2]: 130 µM

Compound: OCC1=C[C@@H](O)[C@@H]2C=CO[C@@H](O[C@@H]3O[C@H](CO)[C@@H](O)[C@H](O)[C@H]3O)[C@H]12 [aucubin]
- inhibition of HBV replication (in words) (HBV replication [3]): inhibit the HBV replication
- in vivo activities (in words) [4]: liver-protection, inhibition of biosynthesis of RNA and protein, detoxification as well as antiviral activity

Compound: Nc1ccn([C@H]2CC[C@@H](CO)O2)c(=O)n1 [ddC, dideoxy cytidine, reference compound]
- EC50 (HBV replication [1]): 15 µM
- SI (Selectivity Index, IC50/ED50) (HBV replication [1]): > 2.0
- CC50 [2]: > 30 µM

Compound: COC(=O)C1=CO[C@@H](O)[C@@H]2C(CO)=CC[C@H]12 [genipin]
- inhibition of HBV replication (in words) (HBV replication [3]): inhibit the HBV replication
- in vivo activities (in words) [4]: liver-protection, inhibition of biosynthesis of RNA and protein, detoxification as well as antiviral activity
